Laboratory results as given in US6730677B2, “Benzofurazan compounds which enhance AMPA receptor activity” (The Regents of the University of California, priority 1997, dated 2004).

Legend:
[1] = system: methamphetamine-induced hyperactivity and/or stereotypic activity; assay: Methamphetamine/rat model of schizophrenia (hyperactivity and/or stereotypic activity); format: in vivo, Sprague-Dawley rats; settings: for MEDS: Minimum Effective Dose that produces a statistically significant improvement in behavior in the animal model of schizophrenia: rats, 2 mg/kg methamphetamine, activity monitored for 90 minutes
Experimental: The dose recorded is that which reduced the hyperactivity and/or the stereotypic activity induced by acute administration of 2 mg/kg methamphetamine in rats, as described in Example 22.
The dose recorded is that which reduced the hyperactivity and/or the stereotypic activity induced by acute administration of 2 mg/kg methamphetamine in Sprague-Dawley rats aged 2-4 months. Activity was monitored for 90 minutes using two rows of multiple, paired infrared diode-detectors such that the lower row detected locomotion and the upper row detected rearing behavior. Data were collected by and stored in a personal computer for later analysis.

[2] = Animal model of depression (Malatynska and Kostowski); format: in vivo; settings: for MEDD: Minimum Effective Dose that produces a statistically significant improvement in behavior in an animal model of depression: in vivo; for Potency relative to the reference compound in the animal model of depression: compared with CX516
Source text: J. Pharmacol. 40, 357-364 (1984).

AMPA receptors = assay: Field EPSP amplitude in field CA1 of rat hippocampal slice (in vitro physiological testing); format: cell-based; settings: estimated by interpolation or extrapolation
Source text: The field EPSP (excitory post-synaptic potential) recorded in field CA1 after stimulation of CA3 axons is known to be mediated by AMPA receptors, which are present in the synapses (Kessler et al., Brain Res. 560: 337-341 (1991)). Drugs that selectively block the receptor selectively block the field EPSP (Muller et al., Science, supra). […] These effects are mirrored in the field EPSP (see, for example, Staubli et al., Psychobiology, supra; Xiao et al., Hippocampus, supra; Staubli et al., Hippocampus 2:4958 (1992)).
To obtain the data shown in Table I, a bipolar nichrome stimulating electrode was positioned in the dendritic layer (stratum radiatum) of the hippocampal subfield CA1 close to the border of subfield CA3, as described in Example 21. Current pulses (0.1 msec) through the stimulating electrode activate a population of the Schaffer-commissural (SC) fibers, which arise from neurons in the subdivision CA3 and terminate in synapses on the dendrites of CA1 neurons. Activation of these synapses causes them to release the transmitter glutamate. Glutamate binds to the post-synaptic AMPA receptors which then transiently open an associated ion channel and permit a sodium current to enter the post-synaptic cell. This current results in a voltage in the extracellular space (the field EPSP), which is recorded by a high impedance recording electrode positioned in the middle of the stratum radiatum of CA1.
The intensity of the stimulation current was adjusted to produce half-maximal EPSPs (typically about 1.5-2.0 mV). Paired stimulation pulses were given every 40 sec with an interpulse interval of 200 msec, as described further in Example 21.
(§1) Hippocampal slices were maintained in a recording chamber continuously perfused with artificial cerebrospinal fluid (ACSF). During 15-30 minute intervals, the perfusion medium was switched to one containing various concentrations of the test compounds. Responses collected immediately before and at the end of drug perfusion were superimposed in order to calculate the percent increase in EPSP amplitude.
Invention compounds 1-9, as shown in FIG. 3 and Table I below, and reference compound CX516 (1-(quinoxalin-6-ylcarbonyl)piperidine), disclosed in PCT Pubn. No. WO 94/02475, were assayed in the physiological test system described above.
as §1, with “The physiological effects of invention compounds were tested in vitro with” for “Hippocampal”, “slices of rat hippocampus according to the following procedure. Excitatory responses (field EPSPs) were measured in hippocampal slices, which” for “slices”, “During a” for “During”, “interval,” for “intervals,”
To conduct these tests, the hippocampus was removed from anesthetized, 2 month old Sprague-Dawley rats and in vitro slices (400 micrometers thick) were prepared and maintained in an interface chamber at 35° C. using conventional techniques [see, for example, Dunwiddie and Lynch, J. Physiol. 276: 353-367 (1978)]. The chamber was constantly perfused at 0.5 mL/min with ACSF containing (in mM): NaCl 124, KCl 3, KH2PO4 1.25, MgSO42.5, CaCl2 3.4, NaHCO3 26, glucose 10 and L-ascorbate 2. A bipolar nichrome stimulating electrode was positioned in the dendritic layer (stratum radiatum) of the hippocampal subfield CA1 close to the border of subfield CA3.
Current pulses (0.1 msec) through the stimulating electrode activate a population of the Schaffer-commissural (SC) fibers which arise from neurons in the subdivision CA3 and terminate in synapses on the dendrites of CA1 neurons. Activation of these synapses causes them to release the transmitter glutamate. […]

[3] = Eight-arm radial maze task for cognition/memory enhancement; format: in vivo
Source text: This task has been described previously (Staubli et al., PNAS 91:777-781 (1994)) and Lynch and Rogers, PCT Pubn. No. WO 94/02475).

SMILES | melting point [°C] | Amp: concentration of compound that causes a 10% increase in the amplitude of the field EPSP in Field CA1 of rat hippocampal slice (AMPA receptors) [µM] | MEDC: Minimum Effective Dose that produces a statistically significant improvement in behavior in the eight-arm radial maze task [3] [mg/kg] | other results
O=C(c1ccc2nccnc2c1)N1CCCCC1 [CX516, 1-(quinoxalin-6-ylcarbonyl)piperidine, reference compound] |  | 50 | 15 | MEDS: Minimum Effective Dose that produces a statistically significant improvement in behavior in the animal model of schizophrenia [1]: 10 mg/kg; MEDD: Minimum Effective Dose that produces a statistically significant improvement in behavior in an animal model of depression [2]: 5 mg/kg
O=C(c1ccc2nsnc2c1)N1CCCCC1 [Compound 1, 1-(Benzo-2,1,3-thiadiazole-5-ylcarbonyl)piperidine] |  | <100 |  | 
O=C(c1ccc2nonc2c1)N1CCCCC1 [Compound 2, 1-(Benzofurazan-5-ylcarbonyl)piperidine] | 88.5 to 90.5 | 3 | 0.1 | Reduction in dose giving an equivalent effect relative to reference compound CX516 ([1]; methamphetamine/rat model): hundred-fold; MEDS: Minimum Effective Dose that produces a statistically significant improvement in behavior in the animal model of schizophrenia [1]: 0.1 mg/kg; Potency relative to the reference compound in the animal model of depression [2]: approximately 500 fold; MEDD: Minimum Effective Dose that produces a statistically significant improvement in behavior in an animal model of depression [2]: 0.01 mg/kg
O=C(c1ccc2nonc2c1)N1CC=CCC1 [Compound 3, 1-(Benzofurazan-5-ylcarbonyl)-1,2,3,6-tetrahydropyridine] |  | 100 |  | 
O=C(c1ccc2nonc2c1)N1CCC(F)CC1 [Compound 4, 1-(Benzofurazan-5-ylcarbonyl)-4-fluoropiperidine] |  | 30 |  | MEDS: Minimum Effective Dose that produces a statistically significant improvement in behavior in the animal model of schizophrenia [1]: 1 mg/kg
O=C(c1ccc2nonc2c1)N1CCC(F)(F)CC1 [Compound 5, 1-(Benzofurazan-5-ylcarbonyl)-4,4-difluoropiperidine] |  | 50 |  | MEDS: Minimum Effective Dose that produces a statistically significant improvement in behavior in the animal model of schizophrenia [1]: 1 mg/kg
O=C(c1ccc2nonc2c1)N1CC=C(F)CC1 [Compound 6, 1-(Benzofurazan-5-ylcarbonyl)-1,2,3,6-tetrahydro-4-fluoropyridine] |  | 30 |  | 
O=C(c1ccc2nonc2c1)N1CCOCC1 [Compound 7, 4-(Benzofurazan-5-ylcarbonyl)morpholine] |  | 3 | 0.1 | 
N#CC1CCN(C(=O)c2ccc3nonc3c2)CC1 [Compound 8, 1-(Benzofurazan-5-ylcarbonyl)-4-cyanopiperidine] | 104 to 107 | 1 | 0.1 | 

The next lines start with results.

melting point [°C] | SMILES | Amp: concentration of compound that causes a 10% increase in the amplitude of the field EPSP in Field CA1 of rat hippocampal slice (AMPA receptors) [µM] | MEDC: Minimum Effective Dose that produces a statistically significant improvement in behavior in the eight-arm radial maze task [3] [mg/kg] | other results
132 to 136 | O=C(c1ccc2nonc2c1)N1CCC(O)CC1 [Compound 9, 1-(Benzofurazan-5-ylcarbonyl)-4-hydroxypiperidine] | 20 | 0.1 | Potency relative to the reference compound in the animal model of depression [2]: approximately 500 fold; MEDD: Minimum Effective Dose that produces a statistically significant improvement in behavior in an animal model of depression [2]: 0.01 mg/kg
144 to 146 | O=C(c1ccc2nonc2c1)[SH]1CCNCC1 [Compound 10, 1-(Benzofurazan-5-ylcarbonyl)thiomorpholine] |  |  | 
97.8 to 99.3 | O=C(c1ccc2nonc2c1)N1CCCC1 [Compound 11, 1-(Benzofurazan-5-ylcarbonyl)pyrrolidine] |  |  | 
117 to 118 | O=C(c1ccc2nonc2c1)N1CC=CC1 [Compound 12, 1-(Benzofurazan-5-ylcarbonyl)-3-pyrroline] |  |  | 
86 to 87 | CC1CCN(C(=O)c2ccc3nonc3c2)CC1 [Compound 13, 1-(Benzofurazan-5-ylcarbonyl)-4-methylpiperidine] |  |  | 
86 to 87 | O=C(c1ccc2nonc2c1)N1CCCCCC1 [Compound 14, 1-(Benzofurazan-5-ylcarbonyl)hexamethyleneimine] |  |  | 
